pKd: −log10 of the molar value. The source made the active and inactive calls. Rule as the data show it, for most assays here: actives have a measured Kd and inactives only a lower limit.
Experiments:
[1] = target: T1, Peroxisomal acyl-coenzyme A oxidase 3 (Homo sapiens, UniProt O15254)
T1 sequence (O15254 whole entry): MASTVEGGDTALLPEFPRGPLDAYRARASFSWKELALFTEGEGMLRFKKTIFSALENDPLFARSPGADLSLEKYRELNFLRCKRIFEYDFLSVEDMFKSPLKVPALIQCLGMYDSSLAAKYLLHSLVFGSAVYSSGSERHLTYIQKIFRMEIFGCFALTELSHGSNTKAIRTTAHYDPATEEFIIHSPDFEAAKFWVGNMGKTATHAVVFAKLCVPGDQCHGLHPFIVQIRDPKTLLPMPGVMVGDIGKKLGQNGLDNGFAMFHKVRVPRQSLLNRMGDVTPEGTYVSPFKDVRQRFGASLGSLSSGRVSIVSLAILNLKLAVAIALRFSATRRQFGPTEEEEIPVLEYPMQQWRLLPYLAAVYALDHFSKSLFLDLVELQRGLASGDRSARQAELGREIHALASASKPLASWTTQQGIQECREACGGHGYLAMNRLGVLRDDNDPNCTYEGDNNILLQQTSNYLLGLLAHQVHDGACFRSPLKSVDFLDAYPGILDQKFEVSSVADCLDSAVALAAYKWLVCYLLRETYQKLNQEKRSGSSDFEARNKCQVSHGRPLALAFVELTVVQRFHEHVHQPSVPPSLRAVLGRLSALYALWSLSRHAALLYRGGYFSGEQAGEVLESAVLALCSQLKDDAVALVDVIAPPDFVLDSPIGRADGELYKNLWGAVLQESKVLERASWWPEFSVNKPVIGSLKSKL

[2] = target: Bone morphogenetic protein receptor type-1B (Homo sapiens, UniProt O00238)
[3] = target: Serine/threonine-protein kinase MRCK gamma (Homo sapiens, UniProt Q6DT37)
[4] = target: Cyclin-dependent kinase 3 (Homo sapiens, UniProt Q00526)
[5] = target: Mitogen-activated protein kinase 10 (Homo sapiens, UniProt P53779)
[6] = target: Receptor-interacting serine/threonine-protein kinase 3 (Homo sapiens, UniProt Q9Y572)
[7] = target: Tyrosine-protein kinase SYK (Homo sapiens, UniProt P43405)
[8] = target: T2, Serine/threonine-protein kinase TAO2 (Homo sapiens, UniProt Q9UL54)
T2 sequence (Q9UL54 whole entry): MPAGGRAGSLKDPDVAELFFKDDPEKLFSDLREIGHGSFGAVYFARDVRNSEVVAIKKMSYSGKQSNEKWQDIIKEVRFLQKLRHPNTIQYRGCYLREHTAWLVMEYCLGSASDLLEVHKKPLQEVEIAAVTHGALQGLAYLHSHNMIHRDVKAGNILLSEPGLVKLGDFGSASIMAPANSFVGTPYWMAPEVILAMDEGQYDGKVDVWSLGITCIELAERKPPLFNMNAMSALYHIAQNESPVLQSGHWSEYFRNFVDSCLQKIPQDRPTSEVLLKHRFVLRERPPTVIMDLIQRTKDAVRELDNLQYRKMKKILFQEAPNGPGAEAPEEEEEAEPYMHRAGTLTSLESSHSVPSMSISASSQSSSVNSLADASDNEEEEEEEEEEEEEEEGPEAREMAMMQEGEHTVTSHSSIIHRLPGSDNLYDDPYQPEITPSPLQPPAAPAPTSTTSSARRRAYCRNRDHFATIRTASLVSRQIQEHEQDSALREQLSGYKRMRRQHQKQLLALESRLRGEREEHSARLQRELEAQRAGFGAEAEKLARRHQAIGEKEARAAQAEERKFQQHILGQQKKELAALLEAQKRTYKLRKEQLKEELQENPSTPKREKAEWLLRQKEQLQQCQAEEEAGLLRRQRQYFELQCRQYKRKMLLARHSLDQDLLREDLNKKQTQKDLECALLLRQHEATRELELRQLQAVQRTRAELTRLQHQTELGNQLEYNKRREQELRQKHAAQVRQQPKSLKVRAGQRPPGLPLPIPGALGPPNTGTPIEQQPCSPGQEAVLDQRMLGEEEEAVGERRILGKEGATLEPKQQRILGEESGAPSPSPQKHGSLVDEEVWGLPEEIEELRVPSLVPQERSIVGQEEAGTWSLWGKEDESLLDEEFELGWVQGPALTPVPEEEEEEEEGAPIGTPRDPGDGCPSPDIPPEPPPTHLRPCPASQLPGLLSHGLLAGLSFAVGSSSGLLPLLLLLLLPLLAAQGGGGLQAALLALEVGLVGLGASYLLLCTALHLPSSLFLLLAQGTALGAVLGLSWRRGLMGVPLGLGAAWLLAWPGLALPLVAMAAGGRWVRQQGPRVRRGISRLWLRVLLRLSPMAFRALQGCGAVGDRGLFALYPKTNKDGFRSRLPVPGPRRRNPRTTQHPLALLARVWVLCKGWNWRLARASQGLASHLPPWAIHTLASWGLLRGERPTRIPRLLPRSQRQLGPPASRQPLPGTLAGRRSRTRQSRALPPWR

[9] = target: Mitogen-activated protein kinase kinase kinase 20 (Homo sapiens, UniProt Q9NYL2)
[10] = target: T3, Uncharacterized protein FLJ45252 (Homo sapiens, UniProt Q6ZSR9); conditions: read-out: Kd apparent; k-562, colo 205, sk-n-be(2) and mv-4-11
T3 sequence (Q6ZSR9 whole entry): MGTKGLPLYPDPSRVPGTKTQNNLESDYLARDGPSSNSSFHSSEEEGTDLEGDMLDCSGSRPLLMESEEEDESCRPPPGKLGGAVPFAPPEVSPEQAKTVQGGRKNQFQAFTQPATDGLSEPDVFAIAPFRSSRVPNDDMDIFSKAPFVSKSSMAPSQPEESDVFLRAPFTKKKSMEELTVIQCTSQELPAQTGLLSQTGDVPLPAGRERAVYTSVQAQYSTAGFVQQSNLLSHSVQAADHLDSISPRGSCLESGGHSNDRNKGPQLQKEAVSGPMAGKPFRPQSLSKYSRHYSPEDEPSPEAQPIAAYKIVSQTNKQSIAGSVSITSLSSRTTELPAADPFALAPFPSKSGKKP
Also: in the data inactive means no Kd found up to 30 µM.

Mitogen-activated protein kinase kinase kinase 20, sequence (Q9NYL2 whole entry): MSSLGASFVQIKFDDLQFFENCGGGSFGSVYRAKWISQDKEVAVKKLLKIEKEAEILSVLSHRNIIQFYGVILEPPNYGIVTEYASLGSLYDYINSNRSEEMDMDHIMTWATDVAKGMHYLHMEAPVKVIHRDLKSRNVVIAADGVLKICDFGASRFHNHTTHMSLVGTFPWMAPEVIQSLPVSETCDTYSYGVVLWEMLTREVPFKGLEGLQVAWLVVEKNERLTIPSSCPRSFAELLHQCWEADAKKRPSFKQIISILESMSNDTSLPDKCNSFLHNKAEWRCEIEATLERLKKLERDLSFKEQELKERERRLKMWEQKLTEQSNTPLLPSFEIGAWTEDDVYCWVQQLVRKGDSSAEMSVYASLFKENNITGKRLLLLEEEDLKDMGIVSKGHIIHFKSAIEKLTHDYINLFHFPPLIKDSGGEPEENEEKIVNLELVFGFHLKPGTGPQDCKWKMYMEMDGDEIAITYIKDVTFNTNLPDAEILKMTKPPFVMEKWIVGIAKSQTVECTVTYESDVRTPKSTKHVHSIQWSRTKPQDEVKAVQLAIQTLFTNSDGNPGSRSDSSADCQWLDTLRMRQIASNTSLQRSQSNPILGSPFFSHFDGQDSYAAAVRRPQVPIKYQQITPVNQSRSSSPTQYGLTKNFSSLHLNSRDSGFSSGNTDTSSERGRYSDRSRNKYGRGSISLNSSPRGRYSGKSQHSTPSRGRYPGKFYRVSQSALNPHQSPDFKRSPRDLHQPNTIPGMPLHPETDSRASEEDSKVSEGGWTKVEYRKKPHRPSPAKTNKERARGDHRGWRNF
Serine/threonine-protein kinase MRCK gamma, sequence (Q6DT37 whole entry): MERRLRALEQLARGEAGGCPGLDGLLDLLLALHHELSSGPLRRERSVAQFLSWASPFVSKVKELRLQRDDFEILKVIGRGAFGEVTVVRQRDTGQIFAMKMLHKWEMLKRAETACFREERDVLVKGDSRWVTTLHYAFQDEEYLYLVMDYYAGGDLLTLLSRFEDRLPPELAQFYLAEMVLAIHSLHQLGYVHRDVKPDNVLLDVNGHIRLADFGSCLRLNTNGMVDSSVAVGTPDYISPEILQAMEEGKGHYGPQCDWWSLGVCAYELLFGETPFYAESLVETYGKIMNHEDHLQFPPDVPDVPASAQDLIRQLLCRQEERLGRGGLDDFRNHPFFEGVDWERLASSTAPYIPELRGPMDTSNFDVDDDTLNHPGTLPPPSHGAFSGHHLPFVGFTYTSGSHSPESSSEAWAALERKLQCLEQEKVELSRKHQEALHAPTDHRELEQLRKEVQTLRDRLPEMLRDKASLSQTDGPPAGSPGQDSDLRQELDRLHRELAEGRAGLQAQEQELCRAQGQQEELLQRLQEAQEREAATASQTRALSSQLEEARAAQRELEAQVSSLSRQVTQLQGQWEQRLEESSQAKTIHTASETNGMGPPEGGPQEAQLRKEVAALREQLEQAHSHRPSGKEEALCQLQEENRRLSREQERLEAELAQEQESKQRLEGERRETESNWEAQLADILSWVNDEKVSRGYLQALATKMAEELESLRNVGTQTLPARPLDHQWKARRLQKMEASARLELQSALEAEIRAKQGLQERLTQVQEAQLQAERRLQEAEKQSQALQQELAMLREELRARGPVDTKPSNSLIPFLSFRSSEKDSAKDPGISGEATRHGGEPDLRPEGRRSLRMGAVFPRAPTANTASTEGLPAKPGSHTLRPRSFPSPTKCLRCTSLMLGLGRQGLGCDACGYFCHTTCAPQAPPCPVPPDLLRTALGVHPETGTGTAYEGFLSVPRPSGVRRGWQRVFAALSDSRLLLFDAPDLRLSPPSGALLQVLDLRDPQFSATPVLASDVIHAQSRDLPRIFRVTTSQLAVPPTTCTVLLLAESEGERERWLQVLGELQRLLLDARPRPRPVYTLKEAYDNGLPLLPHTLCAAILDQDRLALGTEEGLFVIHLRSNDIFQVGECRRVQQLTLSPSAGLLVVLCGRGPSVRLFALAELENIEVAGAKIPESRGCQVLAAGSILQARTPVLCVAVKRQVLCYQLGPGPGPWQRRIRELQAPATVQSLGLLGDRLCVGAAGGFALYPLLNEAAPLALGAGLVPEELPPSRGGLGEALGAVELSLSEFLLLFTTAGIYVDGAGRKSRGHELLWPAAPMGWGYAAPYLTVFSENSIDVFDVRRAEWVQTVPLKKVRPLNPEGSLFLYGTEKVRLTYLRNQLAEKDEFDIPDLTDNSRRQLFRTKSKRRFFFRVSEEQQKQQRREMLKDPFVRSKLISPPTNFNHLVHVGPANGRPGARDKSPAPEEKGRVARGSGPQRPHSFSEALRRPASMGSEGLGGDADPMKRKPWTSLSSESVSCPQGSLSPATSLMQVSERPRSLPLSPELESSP
Bone morphogenetic protein receptor type-1B, sequence (O00238 whole entry): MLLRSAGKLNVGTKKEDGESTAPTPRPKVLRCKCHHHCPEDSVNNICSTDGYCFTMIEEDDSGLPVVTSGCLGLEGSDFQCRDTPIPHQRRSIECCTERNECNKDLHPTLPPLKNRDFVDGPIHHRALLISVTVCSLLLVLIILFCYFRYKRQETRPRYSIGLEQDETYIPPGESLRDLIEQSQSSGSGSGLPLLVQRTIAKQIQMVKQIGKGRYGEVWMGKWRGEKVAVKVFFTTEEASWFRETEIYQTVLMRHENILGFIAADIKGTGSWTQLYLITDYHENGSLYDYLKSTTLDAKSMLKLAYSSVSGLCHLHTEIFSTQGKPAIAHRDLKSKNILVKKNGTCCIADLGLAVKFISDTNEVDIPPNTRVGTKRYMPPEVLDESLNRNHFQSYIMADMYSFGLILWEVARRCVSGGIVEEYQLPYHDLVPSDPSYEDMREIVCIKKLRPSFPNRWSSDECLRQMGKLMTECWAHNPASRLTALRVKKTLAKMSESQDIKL
Mitogen-activated protein kinase 10, sequence (P53779 whole entry): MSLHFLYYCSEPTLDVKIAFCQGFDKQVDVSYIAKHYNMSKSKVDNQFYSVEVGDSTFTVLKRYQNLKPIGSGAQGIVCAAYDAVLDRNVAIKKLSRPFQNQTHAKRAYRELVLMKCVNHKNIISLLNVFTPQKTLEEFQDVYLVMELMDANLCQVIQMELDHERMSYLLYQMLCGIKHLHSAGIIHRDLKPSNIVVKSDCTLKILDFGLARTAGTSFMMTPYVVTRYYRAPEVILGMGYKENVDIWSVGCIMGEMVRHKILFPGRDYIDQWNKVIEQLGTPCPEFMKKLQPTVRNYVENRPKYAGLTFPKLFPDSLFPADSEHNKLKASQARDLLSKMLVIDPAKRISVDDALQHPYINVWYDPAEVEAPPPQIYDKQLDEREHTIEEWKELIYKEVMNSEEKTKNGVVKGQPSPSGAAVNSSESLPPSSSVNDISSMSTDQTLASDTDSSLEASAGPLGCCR
Cyclin-dependent kinase 3, sequence (Q00526 whole entry): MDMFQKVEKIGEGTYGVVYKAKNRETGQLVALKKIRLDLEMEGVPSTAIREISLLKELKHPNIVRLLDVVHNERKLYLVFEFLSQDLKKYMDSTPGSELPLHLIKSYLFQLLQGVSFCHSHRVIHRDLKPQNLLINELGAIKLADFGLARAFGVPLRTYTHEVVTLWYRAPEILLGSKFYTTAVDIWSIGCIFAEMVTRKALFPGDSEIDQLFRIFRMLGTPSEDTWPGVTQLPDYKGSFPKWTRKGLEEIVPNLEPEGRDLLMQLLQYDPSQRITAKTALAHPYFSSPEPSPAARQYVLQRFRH
Receptor-interacting serine/threonine-protein kinase 3, sequence (Q9Y572 whole entry): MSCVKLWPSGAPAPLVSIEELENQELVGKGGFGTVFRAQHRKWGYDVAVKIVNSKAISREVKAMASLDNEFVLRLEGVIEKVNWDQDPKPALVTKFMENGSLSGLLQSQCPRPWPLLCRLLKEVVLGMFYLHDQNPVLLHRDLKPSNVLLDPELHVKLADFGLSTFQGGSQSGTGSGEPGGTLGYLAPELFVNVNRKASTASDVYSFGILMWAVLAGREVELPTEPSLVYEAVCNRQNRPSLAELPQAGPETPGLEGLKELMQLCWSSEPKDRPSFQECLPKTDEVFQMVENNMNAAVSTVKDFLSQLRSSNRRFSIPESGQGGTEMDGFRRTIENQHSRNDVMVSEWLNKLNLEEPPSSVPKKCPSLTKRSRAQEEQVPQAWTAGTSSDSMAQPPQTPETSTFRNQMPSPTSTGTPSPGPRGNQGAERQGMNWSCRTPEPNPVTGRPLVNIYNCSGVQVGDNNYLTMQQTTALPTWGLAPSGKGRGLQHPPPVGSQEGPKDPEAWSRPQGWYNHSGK

Compound	Kd [1]	Kd [2]	Kd [3]	Kd [4]	Kd [5]	Kd [6]	Kd [7]	Kd [8]	Kd [9]	Kd [10]	pKd [3]	pKd [6]	pKd [8]	pKd [5]
Cn1cc(-c2cnc3ccc4ccc(CS(=O)(=O)NCc5ccccn5)cc4c(=O)c3c2)cn1 [MK-8033]	> 30 µM (inactive)	> 30 µM (inactive)	> 30 µM (inactive)	> 30 µM (inactive)	> 30 µM (inactive)	> 30 µM (inactive)	> 30 µM (inactive)	> 30 µM (inactive)	> 30 µM (inactive)	> 30 µM (inactive)				
CN(C[C@@H]1COCCO1)S(=O)(=O)Nc1ccc2ccc3ncc(-c4cnn(C)c4)cc3c(=O)c2c1 [MK-2461]	> 30 µM (inactive)	> 30 µM (inactive)	> 30 µM (inactive)	> 30 µM (inactive)	4.7 µM (active)	> 30 µM (inactive)	> 30 µM (inactive)	> 30 µM (inactive)	> 30 µM (inactive)	2.59 µM (active)				
CN1C/C=C/CCOc2cccc(c2)-c2ccnc(n2)Nc2cccc(c2)C1 [ZOTIRACICLIB]	> 30 µM (inactive)	> 30 µM (inactive)	> 30 µM (inactive)	> 30 µM (inactive)	> 30 µM (inactive)	> 30 µM (inactive)	> 30 µM (inactive)	1.07 µM (active)	> 30 µM (inactive)	> 30 µM (inactive)				
CC(=O)c1cnc2ccc(-c3cc(Cl)c(O)c(Cl)c3)nc2c1N[C@H]1CC[C@H](CN(C)C)CC1	> 30 µM (inactive)	0.002 µM (active)		> 30 µM (inactive)	0.112 µM (active)		> 30 µM (inactive)		0.101 µM (active)		7.20	6.49	8.00	
Cc1cc(Nc2ncc(Cl)c(Nc3ccccc3S(=O)(=O)C(C)C)n2)c(OC(C)C)cc1C1CCNCC1 [CERITINIB]	> 30 µM (inactive)	> 30 µM (inactive)	> 30 µM (inactive)	> 30 µM (inactive)	> 30 µM (inactive)	> 30 µM (inactive)	> 30 µM (inactive)	> 30 µM (inactive)	> 30 µM (inactive)	> 30 µM (inactive)				
Cc1nc2cc(-n3ncc(C(=O)c4cc5ccccc5[nH]4)c3N)ccc2[nH]1 [FGFR INHIBITOR DEBIO 1347]	> 30 µM (inactive)	> 30 µM (inactive)	> 30 µM (inactive)	> 30 µM (inactive)	> 30 µM (inactive)	> 30 µM (inactive)	> 30 µM (inactive)	> 30 µM (inactive)	> 30 µM (inactive)	> 30 µM (inactive)				
CO[C@H]1C[C@@H]2CC[C@@H](C)[C@@](O)(O2)C(=O)C(=O)N2CCCC[C@H]2C(=O)O[C@H]([C@H](C)C[C@@H]2CC[C@@H](O)[C@H](OC)C2)CC(=O)[C@H](C)/C=C(\C)[C@@H](O)[C@@H](OC)C(=O)[C@H](C)C[C@H](C)/C=C/C=C/C=C/1C [SIROLIMUS]	> 30 µM (inactive)	> 30 µM (inactive)	> 30 µM (inactive)		> 30 µM (inactive)	> 30 µM (inactive)	> 30 µM (inactive)	> 30 µM (inactive)	> 30 µM (inactive)	> 30 µM (inactive)				
O=C(Nc1cc(C(F)(F)F)cc(C(F)(F)F)c1)c1cc(Cl)ccc1O [IMD-0354]	> 30 µM (inactive)	> 30 µM (inactive)	> 30 µM (inactive)	> 30 µM (inactive)	> 30 µM (inactive)	> 30 µM (inactive)	> 30 µM (inactive)	> 30 µM (inactive)	> 30 µM (inactive)	> 30 µM (inactive)				
Cc1cc(Nc2ncnc3ccc(NC4=NC(C)(C)CO4)cc23)ccc1Oc1ccn2ncnc2c1 [TUCATINIB]	> 30 µM (inactive)	> 30 µM (inactive)	> 30 µM (inactive)	> 30 µM (inactive)	> 30 µM (inactive)		> 30 µM (inactive)	> 30 µM (inactive)	> 30 µM (inactive)	> 30 µM (inactive)		5.97		
CCS(=O)(=O)c1cccc(-c2cc(C(=O)NC3CCN(C)CC3)c(C)c3[nH]c4ncc(C)cc4c23)c1 [TAK-901]	> 30 µM (inactive)	> 30 µM (inactive)	> 30 µM (inactive)	> 30 µM (inactive)	> 30 µM (inactive)	> 30 µM (inactive)	4.66 µM (active)	> 30 µM (inactive)	> 30 µM (inactive)					
O=C(Cc1ccc(-c2ccc(OCCN3CCOCC3)cc2)cn1)NCc1ccccc1 [TIRBANIBULIN]	> 30 µM (inactive)	> 30 µM (inactive)	> 30 µM (inactive)	> 30 µM (inactive)	> 30 µM (inactive)	> 30 µM (inactive)	> 30 µM (inactive)	> 30 µM (inactive)	> 30 µM (inactive)	> 30 µM (inactive)				
COc1cc2ncnc(Oc3cccc(NC(=O)Nc4cc(C(C)(C)C(F)(F)F)on4)c3)c2cc1OC [CEP-32496]	> 30 µM (inactive)	> 30 µM (inactive)	> 30 µM (inactive)	> 30 µM (inactive)			> 30 µM (inactive)	> 30 µM (inactive)	0.998 µM (active)	> 30 µM (inactive)		6.61		6.42
Cc1cc(C(=O)NOCCO)c(Nc2ccc(I)cc2F)n(C)c1=O [AZD-8330]	> 30 µM (inactive)	> 30 µM (inactive)	> 30 µM (inactive)	> 30 µM (inactive)	> 30 µM (inactive)	> 30 µM (inactive)	> 30 µM (inactive)	> 30 µM (inactive)	> 30 µM (inactive)	> 30 µM (inactive)				
O=C(Nc1nc2cccc(-c3ccc(CN4CCS(=O)(=O)CC4)cc3)n2n1)C1CC1 [FILGOTINIB]	> 30 µM (inactive)	> 30 µM (inactive)	> 30 µM (inactive)	> 30 µM (inactive)	2.14 µM (active)	> 30 µM (inactive)	> 30 µM (inactive)	> 30 µM (inactive)	> 30 µM (inactive)					
COc1c(OCCCN2CCOCC2)ccc2c1N=C(NC(=O)c1cnc(N)nc1)N1CCN=C21 [COPANLISIB]	> 30 µM (inactive)	> 30 µM (inactive)	> 30 µM (inactive)	> 30 µM (inactive)	> 30 µM (inactive)	> 30 µM (inactive)	> 30 µM (inactive)	> 30 µM (inactive)	> 30 µM (inactive)					

Reference: ChEMBL document CHEMBL3991601, “The target landscape of clinical kinase drugs” (Science, 2017)
